# “Also recorded” adds a separate entry of the source.
# Assays:
# Assay type in all cases: cell-based
# [1] = tested on: HIV-1 NL43, SG3 or SG3deltaVif; experiment: Reactivation in latently infected primary resting CD4 T-cells (p24 ELISA)
# Protocol: A representative of three experiments is shown. […] AZT (100 μM) was added at day 1 after infection to prevent the spreading infection. The level of p24 in the media was measured by ELISA at day 3 (d3) and day 5 (d5) post-infection. The data shown are summarized for triplicate samples.
# For FIG. 5A, primary resting CD4 T-cells were purified and spinoculated with HIV-1 NL43 or mock control. The infected cells were then cultured in the presence of 1 μM of JQ1(+) or JQ1(−). At day 3 after infection, IL-7 (20 ng/ml) was added in some of the cultures. Cells were counted and cell supernatants were collected at day 5 after infection. For FIG. 5B, primary CD4 T-cells were spinoculated with SG3 or SG3deltaVif and cultured in the presence of 1 μM of JQ1(+) or JQ1(−). AZT (100 μM) was added at day 1 after infection to prevent the spreading infection. IL7 (20 ng/ml) was added in some culture at day 3 after infection and the level of p24 in the media was measured by ELISA at day 3 and day 5 post-infection. The data shown are summarized with triplicates.
# [2] = tested on: HIV (NL43, SG3); experiment: Viral production and p24Gag expression in HIV-infected CEMss LTR-GFP cells
# [3] = tested on: Primary CD4 T-cells; experiment: Cell death of HIV-infected primary CD4 T-cells (FSC/SSC); settings: primary activated CD4 T-cells infected with NL43 or SG3, 0.1 μM, days 3-13
# Protocol: (§1) Primary CD4 T-cells were activated with anti-CD3/28, then infected with HIV, NL43 or SG3, and cultured in the presence of JQ1(+) (1 μM or 0.1 μM) or media. At days 3, 6, 10 and 13 after infection, cell death was measured by percent of FSC/SSC (forward scatter/side scatter) as indicated in individual plots (FIGS. 8A and 8C). The expression of p24 in live cells was examined by flow cytometry and is shown as the percentage of p24+ cells (FIGS. 8B and 8D).
# (§2) Of note, mean fluorescence of p24 was unchanged in the presence of the active inhibitor, indicating there was not a non-specific toxic drug effect and supporting the observation that BET antagonism inhibits HIV production at late time points of infection in primary activated CD4 T-cells.
# [4] = tested on: HIV (NL43, SG3, BAL1 or BL2); experiment: HIV infection of primary activated CD4 T-cells (p24 by flow cytometry or ELISA)
# Description: Primary CD4 T-cells were activated with anti-CD3/28, infected with NL43, SG3, BAL1, or BL2 (FIG. 1A) or NL43 (FIGS. 1B and 1C), and cultured in the presence of the BET antagonist JQ1(+) or the control enantiomer JQ1(−). FIG. 1A provides the expression of p24Gag in cells as determined by flow cytometry. FIGS. 1B and 1C show viral production as measured in culture supernatants by ELISA.
# as §1
# BET antagonists inhibit viral infection in primary activated CD4 T-cells. Specifically, the effect of the BET antagonist JQ1(+) on viral replication was tested in HIV-infected T-cells. Primary activated CD4 T-cells were infected with X4-tropic virus (NL43 or SG3) or R5-tropic virus (BAL1 or BL2) in the presence or absence of JQ1(+) (1 μM). Viral infection was measured by flow cytometry or ELISA at various days after infection.
# as §2
# [5] = tested on: HIV-1 NL43; experiment: Viral integration in primary resting CD4 T-cells by Alu-PCR; settings: for provirus/cell: NL43, 1 μM, T48 h, listed as JQ(+)
# Protocol: To determine if JQ1(+) affects viral integration in primary resting CD4 T-cells, the cells were purified and infected with HIV-1 NL43 or mock control. The infected cells were then cultured in the presence of 1 μM of JQ1(+) or JQ1(−) for 48 hours. Cell pellets were collected at 0 hours and 48 hours after infection. DNA was isolated and the viral integration in resting CD4 T-cells was measured by Alu-PCR.
structure (smiles),measurement,setting,value
"Cc1sc2c(c1C)C(c1ccc(Cl)cc1)=N[C@@H](CC(=O)OC(C)(C)C)c1nnc(C)n1-2 [JQ1(+), tert-butyl 2-((6S)-4-(4-chlorophenyl)-2,3,9-trimethyl-6H-thieno[3,2-f][1,2,4]triazolo[4,3-a][1,4]diazepin-6-yl)acetate]",Reactivation of the HIV LTR (p24 per million cells),"[1]; latently infected primary resting CD4 T-cells, NL43, 1 μM",drives the reactivation of the HIV LTR
same,Reactivation of the HIV LTR (p24 in media),"[1]; wild-type SG3 latently infected primary CD4 T-cells, 1 μM, AZT 100 μM",drives reactivation of the HIV LTR; also recorded: drives the reactivation of the HIV LTR
same,Relative number of Gag-expressing live GFP+ cells,"[2]; CEMss LTR-GFP cells infected with SG3, day 5 post-infection, flow cytometry",significantly decreased
same,Production of p24 in supernatants,"[2]; CEMss LTR-GFP cells, HIV NL4-3, 0.25 μM, day 6 after infection, ELISA",decreased below control values
same,Expression of p24Gag in the infected cells (ratio of p24+ in GFP+ population),"[2]; CEMss LTR-GFP cells, NL43, 1 μM, day 3 after infection",decreased
same,"Viral production (p24Gag in supernatants, ELISA)","[2]; CEMss LTR-GFP cells, NL43, 1 μM, day 6 after infection",decreased
same,Cell death,[3],did not cause cell death above control values
same,Viral infection at low concentration,"[4]; primary CD4 T-cells, NL43, 0.1 μM",inhibition of viral infection was also observed
same,"HIV infection (viral production, ELISA)","[4]; primary CD4 T-cells, NL43, days 3 and 6 after infection, p<0.05",significantly inhibited
same,Relative number of virus-expressing cells (percentage of p24+ cells),"[4]; primary activated CD4 T-cells, NL43 or SG3, 0.1 μM",still suppressed
same,Levels of infection,"[4]; primary activated CD4 T-cells, X4-tropic (NL43, SG3) or R5-tropic (BAL1, BL2) virus, 1 μM, flow cytometry or ELISA, various days",decrease
same,Mean fluorescence of p24,"[4]; primary activated CD4 T-cells, in the presence of the active inhibitor",unchanged
same,provirus/cell,"[5]; Exp. 1, primary resting CD4 T-cells",0.559 ± 0.005 provirus/cell
same,provirus/cell,"[5]; Exp. 2, primary resting CD4 T-cells",0.444 ± 0.120 provirus/cell
same,Viral integration,"[5]; primary resting CD4 T-cells, 1 μM, 48 hours, Alu-PCR",does not significantly affect

# Source: patent US9387231B2, “Compositions comprising a Brd4 antagonist and methods for the treatment of HIV” (THE CHILDREN'S HOSPITAL OF PHILADELPHIA, priority 2011, dated 2016)
